Measurements as given in US10538580B2, “Anti-equol antibody composition and use therefor” (HEALTHCARE SYSTEMS CO., LTD., priority 2016, dated 2020).

Test system: anti-equol monoclonal antibody composition
Assay: Evaluating cross-reactivity of anti-equol monoclonal antibody composition
Format: binding, mouse
Conditions: for Cross-reactivity with S-equol (%): S-equol as 100%; for S-equol concentration calculated from the calibration curve: reacted with the antibody, read from S-equol calibration curve
Procedure: The cross-reactivity rate can be obtained as follows for example. First, a calibration curve is prepared using S-equol. Compounds including S-equol are prepared with concentrations of 1 μM and 10 μM, and reacted with the antibody at each concentration, and the S-equol concentration is calculated from the calibration curve. For example, if 10 μM of daidzein is added and detected at a concentration of 10 μM based on the calibration curve the cross-reactivity is given as 100%, while if it is detected at a concentration of 1 μM the cross-reactivity is given as 10%, and if it is detected at a concentration of 0.1 μM the cross-reactivity is given as 1%. To investigate the cross-reactivity of the resulting antibody composition, reactivity to 9 kinds of compounds including S-equol (S-equol, daidzein, genistein, glycitein, ellagic acid dihydrate, catechin monohydrate, gallic acid, apigenin and DMA) was investigated. First, a calibration curve was prepared using S-equol. The 9 compounds including S-equol were prepared at concentrations of 1 μM and 10 μM, and reacted with the antibody at each concentration, and cross-reactivity was calculated from the calibration curve.

O=c1cc(-c2ccc(O)cc2)oc2cc(O)cc(O)c12 [Apigenin, apigenin]
Cross-reactivity with S-equol (%) (compound at 1 μM): 0.00%
Cross-reactivity with S-equol (%) (compound at 10 μM): 0.00%
S-equol concentration calculated from the calibration curve (compound prepared at 1 μM): 0.00
S-equol concentration calculated from the calibration curve (compound prepared at 10 μM): 0.00

O=c1c(-c2ccc(O)cc2)coc2cc(O)ccc12 [Daidzein, daidzein]
Cross-reactivity with S-equol (%) (compound at 1 μM): 0.00%
Cross-reactivity with S-equol (%) (compound at 10 μM): 0.00%
S-equol concentration calculated from the calibration curve (compound prepared at 1 μM): 0.00
S-equol concentration calculated from the calibration curve (compound prepared at 10 μM): 0.00

O=c1oc2c(O)c(O)cc3c(=O)oc4c(O)c(O)cc1c4c23 [Ellagic acid dihydrate, ellagic acid dihydrate]
Cross-reactivity with S-equol (%) (compound at 1 μM): 0.00%
Cross-reactivity with S-equol (%) (compound at 10 μM): 0.00%
S-equol concentration calculated from the calibration curve (compound prepared at 1 μM): 0.00
S-equol concentration calculated from the calibration curve (compound prepared at 10 μM): 0.00

O=C(O)c1cc(O)c(O)c(O)c1 [Gallic acid, gallic acid]
Cross-reactivity with S-equol (%) (compound at 1 μM): 0.00%
Cross-reactivity with S-equol (%) (compound at 10 μM): 0.74%
S-equol concentration calculated from the calibration curve (compound prepared at 1 μM): 0.00
S-equol concentration calculated from the calibration curve (compound prepared at 10 μM): 0.08

O=c1c(-c2ccc(O)cc2)coc2cc(O)cc(O)c12 [Genistein, genistein]
Cross-reactivity with S-equol (%) (compound at 1 μM): 0.00%
Cross-reactivity with S-equol (%) (compound at 10 μM): 0.00%
S-equol concentration calculated from the calibration curve (compound prepared at 1 μM): 0.00
S-equol concentration calculated from the calibration curve (compound prepared at 10 μM): 0.00

COc1cc2c(=O)c(-c3ccc(O)cc3)coc2cc1O [Glycitein, glycitein]
Cross-reactivity with S-equol (%) (compound at 1 μM): 0.00%
Cross-reactivity with S-equol (%) (compound at 10 μM): 0.00%
S-equol concentration calculated from the calibration curve (compound prepared at 1 μM): 0.00
S-equol concentration calculated from the calibration curve (compound prepared at 10 μM): 0.00

Oc1ccc([C@@H]2COc3cc(O)ccc3C2)cc1 [R-Equol, R-equol]
Cross-reactivity with S-equol (%) (compound at 1 μM): 89.55%
Cross-reactivity with S-equol (%) (compound at 10 μM): 109.59%
S-equol concentration calculated from the calibration curve (compound prepared at 1 μM): 1.20
S-equol concentration calculated from the calibration curve (compound prepared at 10 μM): 11.88

C[C@@H](C(=O)c1ccc(O)cc1O)c1ccc(O)cc1 [R—O-DMA, R—O-desmethylangolensin]
Cross-reactivity with S-equol (%) (compound at 1 μM): 0.00%
Cross-reactivity with S-equol (%) (compound at 10 μM): 0.00%
S-equol concentration calculated from the calibration curve (compound prepared at 1 μM): 0.00
S-equol concentration calculated from the calibration curve (compound prepared at 10 μM): 0.00

Oc1ccc([C@H]2COc3cc(O)ccc3C2)cc1 [S-Equol, S-equol]
Cross-reactivity with S-equol (%) (compound at 1 μM): 100.00%
Cross-reactivity with S-equol (%) (compound at 10 μM): 100.00%
S-equol concentration calculated from the calibration curve (compound prepared at 1 μM): 1.34
S-equol concentration calculated from the calibration curve (compound prepared at 10 μM): 10.84

(+)-Catechin hydrate
Cross-reactivity with S-equol (%) (compound at 1 μM): 0.00%
Cross-reactivity with S-equol (%) (compound at 10 μM): 0.09%
S-equol concentration calculated from the calibration curve (compound prepared at 1 μM): 0.00
S-equol concentration calculated from the calibration curve (compound prepared at 10 μM): 0.01
